Data reported in US7667052B2 (Eisai R&D Management Co., Ltd., priority 2003, dated 2010).

The molecules below were run on transcription from VEGF promoter (assay: VEGF transcription-suppressing activity, VEGF-PLAP reporter in U251/1-8 cell). Conditions: Homo sapiens, U-251; U251/1-8 cell, PLAP activity, low oxygen 18 hours; read-out: IC50 values of VEGF transcription-suppressing activity (range given).
Type: cell-based
Description: In order to prepare reporter system reflecting transcription from VEGF promoter, VEGF promoter sequence was cloned, and inserted in secretory alkali phosphatase (PLAP) vector to construct reporter vector.
In order to obtain the promoter region of human VEGF, VEGF genome was cloned from phage library. PCR primers having the sequences described in Sequence Numbers 1 and 2 were designed based on VEGF cDNA (GenBank accession number: X62568) and a fragment having about 340 bp was obtained by carrying out PCR. Human genome phage library (Human genomic library, Clontech Co.) was screened using this as a probe to obtain pUC18-VEGFA containing about 5.4 kb of VEGF 5′ flanking region. The pUC18-VEGFA was cleaved by KpnI/NheI, VEGF promoter region of about 2.3 kb obtained was inserted in the multi cloning site KpnI/NheI of secretory alkali phosphatase (PLAP) vector (Goto et al, Mol. Pharmacol., 49, 860-873, 1996), and thus, VEGF-PLAP vector was constructed.
The above-mentioned VEGF-PLAP vector was introduced in the U251 cell cultured in the DULBECCO-modified eagle medium (DMEM; manufactured by SIGMA Co., Ltd.) containing 10% fetal calf serum, and cultured in the presence of 1 mg/ml G418 (Merck Co.) to establish G418 resistant stable clone (U251/1-8 cell).
It was confirmed that U251/1-8 cell secreted PLAP under low oxygen (2% O2 incubator) in the same manner as in the report (Cell. Mol. Biol. Res. 40, 35-39, 1994) and was a reporter system reflecting the transcription from VEGF promoter. The screening of the compound suppressing VEGF production which was induced by low oxygen stimulation was carried out below using the clone.
In order to remove the influence of alkaline phosphates in serum, U251/1-8 cell was rinsed twice with the adequate amount of PBS (Phosphate buffered saline), diluted in the DMEM medium containing 10% of serum in which alkaline phosphates was inactivated by the treatment of 60° C. for 20 min., and dispensed in 96-well plates by 4×10^4 cells/180 μl.
After culturing at 37° C. overnight in a CO2 incubator (5% CO2), 20 μL of the above-mentioned incubation solution containing the test compound diluted with 3-fold succession was added, and then they were incubated in a low oxygen ([…]) incubator for 18 hours. With respect to the PLAP activity in the culture supernatants, 10 μl of the supernatants was added to 50 μl of 0.28 M Na2CO3—NaHCO3 buffer solution (pH 10.0, 8.0 mM MgSO4), and finally 50 μl of alkaline phosphatase substrate (LUMISTEIN, Genomescience Co.) was added. After reacting for one hour, the alkaline phosphatase activity of the PLAP was measured by detecting the chemical luminescence by a micro plate reader (Perkin-Elmer Co.).
The PLAP activity under usual oxygen was set as 0%, the PLAP activity of cell which was treated under low oxygen was set as 100%, and the concentration suppressing the PLAP activity by 50% was set as the IC50 value of PLAP.

SMILES	IC50 [nM]
CCC(OS(C)(=O)=O)C(C)C1OC1CC(C)/C=C/C=C(\C)C1OC(=O)CC(O)CCC(C)(O)C(OC(C)=O)/C=C/C1C (centres unmarked) [B16-1, (8E,12E,14E)-7-Acetoxy-3,6-dihydroxy-21-methanesulfonyloxy-6,10,12,16,20-pentamethyl-18,19-epoxytricosa-8,12,14-trien-11-olide]	0.5 to 100
CCC(OS(=O)(=O)c1ccc(C)cc1)C(C)C1OC1CC(C)/C=C/C=C(\C)C1OC(=O)CC(O)CCC(C)(O)C(OC(C)=O)/C=C/C1C (centres unmarked) [B17, (8E,12E,14E)-7-Acetoxy-3,6-dihydroxy-21-(toluene-4-sulfonyloxy)-6,10,12,16,20-pentamethyl-18,19-epoxytricosa-8,12,14-trien-11-olide]	0.5 to 100
CCC(F)C(C)C1OC1CC(C)/C=C/C=C(\C)C1OC(=O)CC(O)CCC(C)(O)C(OC(C)=O)/C=C/C1C (centres unmarked) [B18-1, (8E,12E,14E)-7-Acetoxy-21-fluoro-3,6-dihydroxy-6,10,12,16,20-pentamethyl-18,19-epoxytricosa-8,12,14-trien-11-olide]	0.5 to 100
CCC(OC(C)=O)C(C)C1OC1CC(C)/C=C/C=C(\C)C1OC(=O)CC(O)CCC(C)(O)C(OC(C)=O)/C=C/C1C (centres unmarked) [B20-2, (8E,12E,14E)-7,21-diacetoxy-3,6-dihydroxy-6,10,12,16,20-pentamethyl-18,19-epoxytricosa-8,12,14-trien-11-olide]	0.5 to 100
CCC(OC(C)=O)C(C)C(O)C(Cl)CC(C)/C=C/C=C(\C)C1OC(=O)CC(O)CCC(C)(O)C(OC(C)=O)/C=C/C1C (centres unmarked) [B21-2, (8E,12E,14E)-7,21-diacetoxy-18-chloro-3,6,19-trihydroxy-6,10,12,16,20-pentamethyltricosa-8,12,14-trien-11-olide]	0.5 to 100
CCC(O)C(C)C(OC(C)=O)C(Cl)CC(C)/C=C/C=C(\C)C1OC(=O)CC(OC(C)=O)CCC(C)(O)C(OC(C)=O)/C=C/C1C (centres unmarked) [B21-3, (8E,12E,14E)-3,7,19-triacetoxy-18-chloro-6,21-dihydroxy-6,10,12,16,20-pentamethyltricosa-8,12,14-trien-11-olide]	0.5 to 100
CCC(OC(C)=O)C(C)C(OC(C)=O)C(Cl)CC(C)/C=C/C=C(\C)C1OC(=O)CC(O)CCC(C)(O)C(OC(C)=O)/C=C/C1C (centres unmarked) [B21-4, (8E,12E,14E)-7,19,21-triacetoxy-18-chloro-3,6-dihydroxy-6,10,12,16,20-pentamethyltricosa-8,12,14-trien-11-olide]	0.5 to 100
CCC(OC(C)=O)C(C)C(Br)C(CC(C)/C=C/C=C(\C)C1OC(=O)CC(O)CCC(C)(O)C(OC(C)=O)/C=C/C1C)OC(C)=O (centres unmarked) [B23-1, (8E,12E,14E)-7,18,21-Triacetoxy-19-bromo-3,6-dihydroxy-6,10,12,16,20-pentamethyltricosa-8,12,14-trien-11-olide]	0.5 to 100
CCOCC(=O)OC1CCC(C)(O)C(OC(C)=O)/C=C/C(C)C(/C(C)=C/C=C/C(C)CC2OC2C(C)C(O)CC)OC(=O)C1 (centres unmarked) [B24, (8E,12E,14E)-7-Acetoxy-3-ethoxyacetoxy-6,21-dihydroxy-6,10,12,16,20-pentamethyl-18,19-epoxytricosa-8,12,14-trien-11-olide]	0.5 to 100
CCOCC(=O)OC(CC)C(C)C1OC1CC(C)/C=C/C=C(\C)C1OC(=O)CC(O)CCC(C)(O)C(OC(C)=O)/C=C/C1C (centres unmarked) [B25, (8E,12E,14E)-7-Acetoxy-21-ethoxyacetoxy-3,6-dihydroxy-6,10,12,16,20-pentamethyl-18,19-epoxytricosa-8,12,14-trien-11-olide]	0.5 to 100
CCOCC(=O)OCC(=O)OC1CCC(C)(O)C(OC(C)=O)/C=C/C(C)C(/C(C)=C/C=C/C(C)CC2OC2C(C)C(O)CC)OC(=O)C1 (centres unmarked) [B26]	0.5 to 100
CCC(OC(=O)CO)C(C)C1OC1CC(C)/C=C/C=C(\C)C1OC(=O)CC(O)CCC(C)(O)C(OC(C)=O)/C=C/C1C (centres unmarked) [B27]	0.5 to 100
CCC(OC(=O)CN(C)C)C(C)C1OC1CC(C)/C=C/C=C(\C)C1OC(=O)CC(O)CCC(C)(O)C(OC(C)=O)/C=C/C1C (centres unmarked) [B28, (8E,12E,14E)-7-Acetoxy-3,6-dihydroxy-6,10,12,16,20-pentamethyl-21-dimethylaminoacetoxy-18,19-epoxytricosa-8,12,14-trien-11-olide]	0.5 to 100
CCC(OC(=O)c1cccnc1)C(C)C1OC1CC(C)/C=C/C=C(\C)C1OC(=O)CC(O)CCC(C)(O)C(OC(C)=O)/C=C/C1C (centres unmarked) [B29, (8E,12E,14E)-7-Acetoxy-3-6-dihydroxy-6,10,12,16,20-pentamethyl-21-nicotinoxy-18,19-epoxytricosa-8,12,14-trien-11-olide]	0.5 to 100
CCC(O)C(C)C1OC1CC(C)/C=C/C=C(\C)C1OC(=O)CC(OC(=O)c2ccccc2)CCC(C)(O)C(OC(C)=O)/C=C/C1C (centres unmarked) [B30-2, (8E,12E,14E)-7-acetoxy-3-benzoloxy-6,21-dihydroxy-6,10,12,16,20-pentamethyl-18,19-epoxytricosa-8,12,14-trien-11-olide]	0.5 to 100
CCC(OC(=O)c1ccccc1)C(C)C1OC1CC(C)/C=C/C=C(\C)C1OC(=O)CC(O)CCC(C)(O)C(OC(C)=O)/C=C/C1C (centres unmarked) [B30-3, (8E,12E,14E)-7-acetoxy-21-benzoloxy-3,6-dihydroxy-6,10,12,16,20-pentamethyl-18,19-epoxytricosa-8,12,14-trien-11-olide]	0.5 to 100
CCC(OC(N)=O)C(C)C1OC1CC(C)/C=C/C=C(\C)C1OC(=O)CC(OC(N)=O)CCC(C)(O)C(OC(C)=O)/C=C/C1C (centres unmarked) [B33-1, (8E,12E,14E)-7-Acetoxy-3,21-dicarbamoyloxy-6-hydroxy-6,10,12,16,20-pentamethyl-18,19-epoxytricosa-8,12,14-trien-11-olide]	0.5 to 100
CCC(O)C(C)C1OC1CC(C)/C=C/C=C(\C)C1OC(=O)CC(OC(N)=O)CCC(C)(O)C(OC(C)=O)/C=C/C1C (centres unmarked) [B35-1, (8E,12E,14E)-7-Acetoxy-3-carbamoyloxy-6,21-dihydroxy-6,10,12,16,20-pentamethyl-18,19-epoxytricosa-8,12,14-trien-11-olide]	0.5 to 100
CCC(OC(N)=O)C(C)C1OC1CC(C)/C=C/C=C(\C)C1OC(=O)CC(O)CCC(C)(O)C(OC(C)=O)/C=C/C1C (centres unmarked) [B35-2, (8E,12E,14E)-7-acetoxy-21-carbamoyloxy-3,6-dihydroxy-6,10,12,16,20-pentamethyl-18,19-epoxytricosa-8,12,14-trien-11-olide]	0.5 to 100
CCC(OC(=O)N1CCN(C)CC1)C(C)C1OC1CC(C)/C=C/C=C(\C)C1OC(=O)CC(O)CCC(C)(O)C(OC(C)=O)/C=C/C1C (centres unmarked) [B36-2, (8E,12E,14E)-7-acetoxy-21-((4-methylpiperazin-1-yl)carbonyl)oxy-3,6-dihydroxy-6,10,12,16,20-pentamethyl-18,19-epoxytricosa-8,12,14-trien-11-olide]	0.5 to 100
CCC(O)C(C)C1OC1CC(C)/C=C/C=C(\C)C1OC(=O)CC(OC(=O)N2CCC(N3CCCCC3)CC2)CCC(C)(O)C(OC(C)=O)/C=C/C1C (centres unmarked) [B37-1]	0.5 to 100
CCC(O)C(C)C1OC1CC(C)/C=C/C=C(\C)C1OC(=O)CC(O)CCC(C)(O)C(OC(=O)CCl)/C=C/C1C (centres unmarked) [B39, (8E,12E,14E)-7-Chloroacetoxy-3,6,21-trihydroxy-6,10,12,16,20-pentamethyl-18,19-epoxytricosa-8,12,14-trien-11-olide]	0.5 to 100
CCC(O)C(C)C1OC1CC(C)/C=C/C=C(\C)C1OC(=O)CC(O)CCC(C)(O)C(OC(=O)CN2CCOCC2)/C=C/C1C (centres unmarked) [B40, (8E,12E,14E)-3,6,21-Trihydroxy-6,10,12,16,20-pentamethyl-7-(morpholin-4-yl)acetoxy-18,19-epoxytricosa-8,12,14-trien-11-olide]	0.5 to 100
CCC(O)C(C)C1OC1CC(C)/C=C/C=C(\C)C1OC(=O)CC(O)CCC(C)(O)C(OC(=O)c2ccccc2)/C=C/C1C (centres unmarked) [B41, (8E,12E,14E)-7-Benzoyloxy-3,6,21-trihydroxy-6,10,12,16,20-pentamethyl-18,19-epoxytricosa-8,12,14-trien-11-olide]	0.5 to 100
CCCC(=O)OC1/C=C/C(C)C(/C(C)=C/C=C/C(C)CC2OC2C(C)C(O)CC)OC(=O)CC(O)CCC1(C)O (centres unmarked) [B42]	0.5 to 100

Same assay, conditions: Homo sapiens, U-251; U251/1-8 cell, PLAP activity, low oxygen 18 hours; read-out: VEGF transcription suppressing activity (IC50: nM)

SMILES	IC50 [nM]
CCC(OC(C)=O)C(C)C1OC1CC(C)/C=C/C=C(\C)C1OC(=O)CC(O)CCC(C)(O)C(OC(C)=O)/C=C/C1C (centres unmarked) [B20-2, (8E,12E,14E)-7,21-diacetoxy-3,6-dihydroxy-6,10,12,16,20-pentamethyl-18,19-epoxytricosa-8,12,14-trien-11-olide]	1.6
